Reference: patent US20240279236A1, “COMPOUNDS AND METHODS OF TREATING TUBERCULOSIS” (Fimbrion Therapeutics, Inc., priority 2021, published 2024)

System: WT Mtb Erdman strain
Assay: Microplate Alamar Blue Assay (MABA), Mtb growth inhibition
Type: cell-based, Mycobacterium tuberculosis
Conditions: Mycobacterium tuberculosis, ERDMAN, 168 h, Middlebrook 7H9 media, 7 days at 37° C. in 5% CO2

| SMILES | IC50 [µM] |
| --- | --- |
| Cc1cc2c(NCCCc3ccc(C(C)(C)C)cc3)nc(C(F)(F)F)nc2s1 [Example 206, N-(3-(4-(tert-butyl)phenyl)propyl)-6-methyl-2-(trifluoromethyl) thieno[2,3-d] pyrimidin-4-amine] | 0.26 |
| Cc1cc2c(NCCCCc3ccc(Br)cc3)nc(-c3ccoc3)nc2s1 [Example 207, N-(4-(4-bromophenyl)butyl)-2-(furan-3-yl)-6-methylthieno[2,3-d]pyrimidin-4-amine] | 0.35 |
| Cc1cc2c(NCCCN3CCN(c4ccccc4)CC3)nc(-c3ccoc3)nc2s1 [Example 208, 2-(furan-3-yl)-6-methyl-N-(3-(4-phenylpiperazin-1-yl)propyl)thieno[2,3-d]pyrimidin-4-amine] | 3.2 |
| Cc1cc2c(NCCN3CCN(c4ccccc4)CC3)nc(-c3ccoc3)nc2s1 [Example 209, 2-(furan-3-yl)-6-methyl-N-(2-(4-phenylpiperazin-1-yl)ethyl)thieno[2,3-d]pyrimidin-4-amine] | 4.9 |
| Cc1cc2c(NCCC(=O)N3CCN(c4ccccc4)CC3)nc(-c3ccoc3)nc2s1 [Example 210, 3-((2-(furan-3-yl)-6-methylthieno[2,3-d]pyrimidin-4-yl)amino)-1-(4-phenylpiperazin-1-yl)propan-1-one] | 8.2 |
| Cc1cc2c(NCCCc3ccc(Br)cc3F)nc(-c3ccoc3)nc2s1 [Example 211, N-(3-(4-bromo-2-fluorophenyl)propyl)-2-(furan-3-yl)-6-methylthieno[2,3-d]pyrimidin-4-amine] | 0.12 |
| Clc1nc(NCCCc2ccccc2)c2ccsc2n1 [Example 218, 2-chloro-N-(3-phenylpropyl)thieno [2,3-d]pyrimidin-4-amine] | 6.4 |
| COc1ccc(CCCNc2nc(Cl)nc3sccc23)cc1 [Example 219, 2-chloro-N-(3-(4-methoxyphenyl)propyl)thieno[2,3-d]pyrimidin-4-amine] | > 7.7 |
| Fc1ccc([C@@H]2C[C@H]2Nc2nc(Cl)nc3sccc23)cc1F [Example 220, 2-chloro-N-((1R,2S)-2-(3,4-difluorophenyl)cyclopropyl)thieno[2,3-d]pyrimidin-4-amine] | > 7.2 |
| Fc1ccc([C@@H]2C[C@H]2Nc2nc(Cl)nc3scnc23)cc1F [Example 221, 5-chloro-N-((1R,2S)-2-(3,4-difluorophenyl)cyclopropyl)thiazolo [5,4-d]pyrimidin-7-amine] | > 10 |
| Cc1cc2c(N[C@@H]3C[C@H]3c3ccc(F)c(F)c3)nc(Cl)nc2s1 [Example 222, 2-chloro-N-((1R,2S)-2-(3,4-difluorophenyl)cyclopropyl)-6-methylthieno[2,3-d]pyrimidin-4-amine] | 1.5 |
| Cc1cc2c(NCCCc3ccc(OC(F)(F)F)cc3)nc(Cl)nc2s1 [Example 223, 2-chloro-6-methyl-N-(3-(4-(trifluoromethoxy)phenyl)propyl) thieno[2,3-d] pyrimidin-4-amine] | 1.7 |
| Cc1cc2c(NCCCc3ccccc3)nc(Cl)nc2s1 [Example 224, 2-chloro-6-methyl-N-(3-phenylpropyl)thieno [2,3-d]pyrimidin-4-amine] | 1.6 |
| Cc1cc2c(NC/C=C/c3ccccc3)nc(Cl)nc2s1 [Example 225, 2-chloro-N-cinnamyl-6-methylthieno[2,3-d]pyrimidin-4-amine] | 0.39 |
| Cc1cc2c(N[C@@H]3C[C@H]3c3ccc(F)c(F)c3)nc(OCC(F)(F)F)nc2s1 [Example 226, N-((1R,2S)-2-(3,4-difluorophenyl)cyclopropyl)-6-methyl-2-(2,2,2-trifluoroethoxy)thieno [2,3-d]pyrimidin-4-amine] | 1.2 |
| Cc1cc2c(N[C@@H]3C[C@H]3c3ccc(F)c(F)c3)nc(C#N)nc2s1 [Example 227, 4-(((1R,2S)-2-(3,4-difluorophenyl)cyclopropyl)amino)-6-methylthieno[2,3-d]pyrimidine-2-carbonitrile] | 3.3 |
| Cc1cccc(CCCNc2nc(C(F)(F)F)nc3sc(C)cc23)c1 [Example 228, 6-methyl-N-(3-(m-tolyl)propyl)-2-(trifluoromethyl)thieno [2,3-d]pyrimidin-4-amine] | 1.5 |
| COC(=O)c1cccc(CCCNc2nc(C(F)(F)F)nc3sc(C)cc23)c1 [Example 229, methyl 3-(3-((6-methyl-2-(trifluoromethyl)thieno [2,3-d]pyrimidin-4-yl)amino)propyl) benzoate] | 5.9 |
| Cc1cc2c(NCCCc3cc4ccccc4s3)nc(C(F)(F)F)nc2s1 [Example 230, N-(3-(benzo [b]thiophen-2-yl)propyl)-6-methyl-2-(trifluoromethyl) thieno [2,3-d]pyrimidin-4-amine] | 2.5 |
| Cc1cc2c(NCCCc3cccc(F)c3)nc(C(F)(F)F)nc2s1 [Example 231, N-(3-(3-fluorophenyl)propyl)-6-methyl-2-(trifluoromethyl)thieno [2,3-d]pyrimidin-4-amine] | 1.5 |
| Cc1cc2c(NCCCc3ccc4ccccc4c3)nc(C(F)(F)F)nc2s1 [Example 232, 6-methyl-N-(3-(naphthalen-2-yl)propyl)-2-(trifluoromethyl) thieno[2,3-d] pyrimidin-4-amine] | 1.3 |

| SMILES | IC50 [µM] |
| --- | --- |
| Cc1cc2c(NCCCc3ccc(OC4CC4)cc3)nc(C(F)(F)F)nc2s1 [Example 233, N-(3-(4-cyclopropoxyphenyl)propyl)-6-methyl-2-(trifluoromethyl) thieno[2,3-d] pyrimidin-4-amine] | 2.1 |
| Cc1cc2c(NCCCc3ccc(C4CCCCC4)cc3)nc(C(F)(F)F)nc2s1 [Example 234, N-(3-(4-cyclohexylphenyl)propyl)-6-methyl-2-(trifluoromethyl) thieno[2,3-d] pyrimidin-4-amine] | 1.8 |
| Cc1cc2c(NCCCc3ccc(N)cc3)nc(C(F)(F)F)nc2s1 [Example 235, N-(3-(4-aminophenyl)propyl)-6-methyl-2-(trifluoromethyl) thieno[2,3-d]pyrimidin-4-amine] | > 9.9 |
| CCCc1ccc(CCCNc2nc(C(F)(F)F)nc3sc(C)cc23)cc1 [Example 236, 6-methyl-N-(3-(4-propylphenyl)propyl)-2-(trifluoromethyl) thieno [2,3-d]pyrimidin-4-amine] | 1.4 |
| Cc1cc2c(NCCCc3ccc(C4CC4)cc3)nc(C(F)(F)F)nc2s1 [Example 237, N-(3-(4-cyclopropylphenyl)propyl)-6-methyl-2-(trifluoromethyl) thieno[2,3-d] pyrimidin-4-amine] | 1.8 |
| Cc1cc2c(NCCCc3ccc(C#N)cc3)nc(C(F)(F)F)nc2s1 [Example 238, 4-(3-((6-methyl-2-(trifluoromethyl)thieno[2,3-d]pyrimidin-4-yl)amino)propyl) benzonitrile] | > 10 |
| Cc1cc2c(NCCCc3cccs3)nc(C(F)(F)F)nc2s1 [Example 239, 6-methyl-N-(3-(thiophen-2-yl)propyl)-2-(trifluoromethyl) thieno[2,3-d] pyrimidin-4-amine] | > 6.8 |
| Cc1cc2c(NCCCc3cc(F)cc(C(F)(F)F)c3)nc(C(F)(F)F)nc2s1 [Example 240, N-(3-(3-fluoro-5-(trifluoromethyl)phenyl)propyl)-6-methyl-2-(trifluoromethyl) thieno[2,3-d] pyrimidin-4-amine] | 2.9 |
| COc1cccc(CCCNc2nc(C(F)(F)F)nc3sc(C)cc23)c1 [Example 241, N-(3-(3-methoxyphenyl)propyl)-6-methyl-2-(trifluoromethyl) thieno[2,3-d] pyrimidin-4-amine] | 3.1 |
| Cc1cc2c(NCCCc3ccc(S(C)(=O)=O)cc3)nc(C(F)(F)F)nc2s1 [Example 242, 6-methyl-N-(3-(4-(methylsulfonyl)phenyl)propyl)-2-(trifluoromethyl) thieno[2,3-d] pyrimidin-4-amine] | > 10 |
| Cc1cc2c(NCCCc3cccc(C#N)c3)nc(C(F)(F)F)nc2s1 [Example 243, 3-(3-((6-methyl-2-(trifluoromethyl)thieno[2,3-d]pyrimidin-4-yl)amino)propyl) benzonitrile] | > 8 |
| Cc1ccc(CCCNc2nc(C(F)(F)F)nc3sc(C)cc23)cc1 [Example 244, 6-methyl-N-(3-(p-tolyl)propyl)-2-(trifluoromethyl) thieno[2,3-d] pyrimidin-4-amine] | 1 |
| Cc1cc2c(NCCCc3ccc(Cl)cc3)nc(C(F)(F)F)nc2s1 [Example 245, N-(3-(4-chlorophenyl)propyl)-6-methyl-2-(trifluoromethyl) thieno[2,3-d] pyrimidin-4-amine] | 1.8 |
| COC(=O)c1ccc(CCCNc2nc(C(F)(F)F)nc3sc(C)cc23)cc1 [Example 246, methyl 4-(3-((6-methyl-2-(trifluoromethyl)thieno[2,3-d]pyrimidin-4-yl)amino)propyl) benzoate] | > 10 |
| Cc1cc2c(NCCCc3ccccc3C)nc(C(F)(F)F)nc2s1 [Example 247, 6-methyl-N-(3-(o-tolyl)propyl)-2-(trifluoromethyl) thieno[2,3-d] pyrimidin-4-amine] | 1.4 |
| Cc1cc2c(NCCCc3cccc(Cl)c3)nc(C(F)(F)F)nc2s1 [Example 248, N-(3-(3-chlorophenyl)propyl)-6-methyl-2-(trifluoromethyl) thieno[2,3-d] pyrimidin-4-amine] | 1.8 |
| Cc1cc2c(NCCCc3ccccc3Cl)nc(C(F)(F)F)nc2s1 [Example 249, N-(3-(2-chlorophenyl)propyl)-6-methyl-2-(trifluoromethyl)thieno [2,3-d]pyrimidin-4-amine] | 4 |
| CCc1nc(NCCCc2ccc(N(C)C)cc2)c2cc(C)sc2n1 [Example 250, N-(3-(4-(dimethylamino)phenyl)propyl)-2-ethyl-6-methylthieno [2,3-d]pyrimidin-4-amine] | 0.2 |
| CCc1nc(NCCCc2ccc(C)cc2)c2cc(C)sc2n1 [Example 251, 2-ethyl-6-methyl-N-(3-(p-tolyl)propyl)thieno [2,3-d]pyrimidin-4-amine] | 0.1 |
| CCc1nc(NCCCc2ccc(OC(F)(F)F)c(F)c2)c2cc(C)sc2n1 [Example 252, 2-ethyl-N-(3-(3-fluoro-4-(trifluoromethoxy)phenyl)propyl)-6-methylthieno[2,3-d]pyrimidin-4-amine] | 0.6 |
